One data set is described as follows: physchem. In kind it is physicochemical. Particulars: for solubility at 24 h / Solubility in H2O: water; for Solubility in H2O: 24 h.
The nature of data set [1]: Inhibitor activity (IA), depth of chemical embossing and degree of expansion ranked against BTA-P (Table II). Particulars: for Inhibitor Activity (IA): 10% by weight inhibitor in ink, scale 1 to 5, BTA-P benchmark = 1, 7 mil plastisol, 185 °C, 1.9 min. Further details: key to Inhibitor Activity (IA): 1: Excellent; 2: Very Good; 3: Good; 4: Fair; 5: Poor; None. The protocol:
Table II sets forth a number of properties of the examples and comparative examples which were made and tested. Most of these compounds were prepared using the direct milling procedure and then evaluated for inhibitor activity, ghosting and embossing definition.
The inhibited inks (at 10% by weight inhibitor concentration) were printed on 7 mils of an expandable plastisol coated onto a glass mat which was saturated with a non-expandable plastisol. This was done on a flat-bed gravure proof press using a 100 line screen step-wedge gravure plate. The steps ranged from a deep shadow tone to a shallow highlight tone. The inks printed and dried without any tack.
The printed samples were coated with 10 mils of a clear plastisol wearlayer and heated for 1.9±0.1 minutes at an air temperature of 185°±2° C. in a Werner. Mathis oven to fuse and expand the foamable plastisol to about 14 mils (a 2:1 blow ratio). The thickness of the printed coated areas (i.e., restricted area) was measured in mils and compared to the thickness of the expanded unprinted surrounding areas. This difference was recorded as depth of chemical embossing and was used along with the degree of expansion in the inhibited area to access the inhibitor activity (IA).
The inhibitor activity of the BTA-P derivative was established as the benchmark and on a scale of 1 to 5 was given a rating of 1 (five on the scale being less than one mil of overall chemical embossing). This is a subjective ranking where the other compounds were evaluated for inhibitor activity by comparing them to BTA-P, both numerically and visually.

Values after ≈ are worked out from the molar mass of the structure shown. Where two headings read alike, the source gives them in different places.

For the molecule `c1ccc2c(c1)nnn2CNCn1nnc2ccccc21` [BTA-A, bis(benzotriazol-1-ylmethyl) amine], in the data set “physchem” (1440 min), the “Solubility in iPrOH” value is 0.028 % BY WT. Besides, in the data set “physchem”, the concentration in solution (solubility at 24 h) came to 390 µg/mL (≈ 1400 µM). In addition, in data set [1], the “Inhibitor Activity (IA)” value came out at 1.
With `c1ccc2c(c1)nnn2CNc1nc(NCn2nnc3ccccc32)nc(NCn2nnc3ccccc32)n1` [Example 3BTA-M], in data set [1], the “Inhibitor Activity (IA)” value came out at 3.
In the case of `c1ccc2[nH]nnc2c1` [BTA, Benzotriazole, reference compound], the “Solubility in iPrOH” value in “physchem” (1440 min) amounted to 53.9 % BY WT. The amount in solution in the data set “physchem” (solubility at 24 h) came to 19800 µg/mL (≈ 166000 µM). For the same molecule, the “Inhibitor Activity (IA)” value in data set [1] came out at 2.
For the molecule `O=C(NCn1nnc2ccccc21)c1ccccc1` [BTA-PA, reference compound], the “Inhibitor Activity (IA)” value in data set [1] is “N”.
In the case of `S=C(NCn1nnc2ccccc21)NCn1nnc2ccccc21` [BTA-TU, 1,3-bis(benzotriazol-1-ylmethyl) thiourea], the “Solubility in iPrOH” value in the data set “physchem” (1440 min) came out at 0.011 % BY WT. For the same molecule, the concentration in solution in the data set “physchem” (solubility at 24 h) was 10 µg/mL (≈ 29.6 µM). Moreover, the “Inhibitor Activity (IA)” value in data set [1] worked out at 2.
As to `O=C(O)CN(Cn1nnc2ccccc21)Cn1nnc2ccccc21` [BTA-G, N,N-bis(benzotriazol-1-ylmethyl) glycine], in “physchem” (1440 min), the “Solubility in iPrOH” value was found to be 0.914 % BY WT. This molecule also came in with a solubility at 24 h in the data set “physchem” of 6900 µg/mL (≈ 20500 µM). Further, the “Inhibitor Activity (IA)” value in data set [1] came to 1.
`ON(Cn1nnc2ccccc21)Cn1nnc2ccccc21` [BTA-NOH, N,N-bis (benzotriazol-1-yl methyl) hydroxylamine]: in “physchem” (1440 min), the “Solubility in iPrOH” value turned out to be 1.08 % BY WT. The molecule also gave a solubility at 24 h in the data set “physchem” of 800 µg/mL (≈ 2710 µM). Further, the “Inhibitor Activity (IA)” value in data set [1] is reported as 1.
Turning to `O=C(NCn1nnc2ccccc21)NCn1nnc2ccccc21` [BTA-U, 1,3-bis(benzotriazol-1'-ylmethyl) urea], the “Solubility in iPrOH” value in “physchem” (1440 min) stood at 0.08 % BY WT. In the data set “physchem”, this molecule displayed a solubility at 24 h of 20 µg/mL (≈ 62 µM). Besides, the “Inhibitor Activity (IA)” value in data set [1] is recorded as 1.
Regarding `O=S(=O)(NCn1nnc2ccccc21)c1cccc2c(S(=O)(=O)NCn3nnc4ccccc43)cccc12` [BTA-NDSA, 1(1',5'-naphthalenedisulfonamido) methyl benzotriazole], the “Solubility in iPrOH” value in “physchem” (1440 min) came to 0.051 % BY WT. Besides, the solubility at 24 h in the data set “physchem” is 510 µg/mL (≈ 930 µM). Moreover, the “Inhibitor Activity (IA)” value in data set [1] was 1.
As for `CN(Cn1nnc2ccccc21)C(=O)N(C)Cn1nnc2ccccc21` [BTA-DMU, 1,3-Bis(benzotriazol-1'-ylmethyl) N,N'-dimethyl urea], in data set [1], the “Inhibitor Activity (IA)” value is 3.
As for “1Bis(hydroxyethyl)aminomethyltotyltriazole [TTA-HE, reference compound]”, in the data set “physchem” (1440 min), the “Solubility in iPrOH” value was greater than 50 % BY WT. The “Solubility in H2O” value in “physchem” is reported as roughly 50 % BY WT. In addition, the “Inhibitor Activity (IA)” value in data set [1] worked out at 3.
With `c1ccc(-c2nc(NCn3nnc4ccccc43)nc(NCn3nnc4ccccc43)n2)cc1` [BTA-BG, 2,4-bis(benzotriazol-1'-ylmethyl) benzoguanamine], the “Inhibitor Activity (IA)” value in data set [1] amounted to 4.
As for `O=S(=O)(NCn1nnc2ccccc21)c1cccc(S(=O)(=O)NCn2nnc3ccccc32)c1` [BTA-BDSA, 1(1',3'-benzenedisulfonamido)methyl benzotriazole], the “Solubility in iPrOH” value in the data set “physchem” (1440 min) is reported as 0.120 % BY WT. For the same molecule, in the data set “physchem”, the concentration in solution (solubility at 24 h) came to 890 µg/mL (≈ 1790 µM). The “Inhibitor Activity (IA)” value in data set [1] was 1.
The matching figures for `O=C(NN(Cn1nnc2ccccc21)Cn1nnc2ccccc21)c1ccccc1` [BTA-HYR, 1-Bis(Benzotriazol-1'-yl Methyl)-2-Benzoyl Hydrazide]: 0.019 % BY WT, 60 µg/mL (≈ 151 µM) and 1.
As for `O=C1CNC(=O)N1Cn1nnc2ccccc21` [BTA-H], the “Inhibitor Activity (IA)” value in data set [1] was 5.
For the molecule `c1ccc2c(c1)ncn2CN1CCN(Cn2cnc3ccccc32)CC1` [BI-P, N,N'-Bis(Benzimidazol-1-yl Methyl) Piperazine], in “physchem” (1440 min), the “Solubility in iPrOH” value turned out to be 0.211 % BY WT. For the same molecule, the solubility at 24 h in the data set “physchem” was found to be 530 µg/mL (≈ 1530 µM). For the same molecule, the “Inhibitor Activity (IA)” value in data set [1] came to 1.
`CC(N1CCCC1=O)n1nnc2ccccc21` (stereo not shown) [BTA-PY, 1-(1'-(2'-oxopyrrolidin-1'-yl)ethyl) benzotriazole]: in data set [1], the “Inhibitor Activity (IA)” value came to 5.
Regarding `c1ccc2c(c1)nnn2Cn1nnc2ccccc21` [BTA-D, reference compound], the “Inhibitor Activity (IA)” value in data set [1] is “N”.
On to `c1ccc2[nH]cnc2c1` [BI, Benzimidazole], for which the “Solubility in iPrOH” value in the data set “physchem” (isopropyl alcohol, room temperature, 24 hours) was determined as 15.30 % BY WT. For the same molecule, in the data set “physchem” (H2O, room temperature, 24 hours, read-out: Solubility in H2O), the solubility at 24 h was found to be 5000 µg/mL (≈ 42300 µM). Further, in data set [1], the “Inhibitor effectiveness in words” value was “effective inhibitor” and the “Inhibitor Activity (IA)” value was 2.
For the molecule Tolyltriazole [TTA, reference compound], the “Solubility in iPrOH” value in “physchem” (1440 min) is 52.9 % BY WT. The “Solubility in H2O” value in “physchem” is listed as 0.55 % BY WT. Also, in data set [1], the “Inhibitor Activity (IA)” value was determined as 2.
As to `CCCCc1ccc2c(c1)nnn2CNC(=O)NCn1nnc2cc(CCCC)ccc21` [Example 5-BBTA-U, 1,3-Bis(5'-Butyl Benzotriazol-1'-yl Methyl) Urea], in data set [1], the “Inhibitor Activity (IA)” value was 3.
As to `O=C(NCn1nnc2ccccc21)NC(=O)NCn1nnc2ccccc21` [BTA-B, 1,5-Bis(Benzotriazol-1'-yl Methyl) Biuret], in data set [1], the “Inhibitor Activity (IA)” value is recorded as 4.
In the case of `Cc1ccc2c(c1)nnn2CNC(=O)NCn1nnc2cc(C)ccc21` [Example 5-TTA-U, 1,3-bis(5'-tolyltriazol-1'-ylmethyl) urea], the “Inhibitor Activity (IA)” value in data set [1] worked out at 3.
Take “1Bis(2-ethylhexyl)aminomethyltolyltriazole [TTA-EH, reference compound]”: in “physchem” (1440 min), the “Solubility in iPrOH” value is given as greater than 50 % BY WT. Further, the “Solubility in H2O” value in the data set “physchem” is reported as less than 0.01 % BY WT. The “Inhibitor Activity (IA)” value in data set [1] worked out at 2.
With `O=C(O)c1ccc(S(=O)(=O)NCn2nnc3ccccc32)cc1` [BTA-4CBSA, N-(Benzotriazol-1-yl Methyl)-4'-Carboxybenzene Sulfonamide], the “Solubility in iPrOH” value in “physchem” (1440 min) stood at 0.137 % BY WT. The same molecule came in with a solubility at 24 h in the data set “physchem” of 110 µg/mL (≈ 331 µM). Also, in data set [1], the “Inhibitor Activity (IA)” value worked out at 1.
Consider `CS(=O)(=O)NCn1nnc2ccccc21` [BTA-MSA, 1-(1'-methanesulfonamido) methyl benzotriazole], for which, in data set [1], the “Inhibitor Activity (IA)” value is on record as 5.
On to `CC(n1nnc2ccccc21)n1c2ccccc2c2ccccc21` (stereo not shown) [BTA-C, 1-(1'-(Carbazo-9'-yl)Ethyl) Benzotriazole, reference compound], for which the “Inhibitor Activity (IA)” value in data set [1] is “N”.
